PubChem BioAssay AID1918932 (Molecular Pharmacology Branch, DTP, NCI, 2023)

System: 171881-019-R-J1-PDC complex spheroid viability
Assay: Anticancer human tumor 171881-019-R-J1-PDC patient-derived invasive breast carcinoma cell line growth inhibition
Conditions: for IC50: curve of first compound; for viability, T/C: stronger effect = lower value
In short: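 Multicellular complex spheroids of tumor cells with human endothelial cells (HUVEC) and mesenchymal stem cells; the LSD1 inhibitor iadademstat was combined with standard-of-care or investigational agents. Top concentration at or near clinical Cmax, half-log dilutions; final DMSO ≤0.25%.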

[1] = second compound 0.1 µM, first compound 0.000949 µM
[2] = second compound 0.1 µM, first compound 0.003 µM
[3] = second compound 0.1 µM, first compound 0.00949 µM
[4] = second compound 0.1 µM, first compound 0.03 µM
[5] = second compound 0.1 µM, first compound 0.0949 µM
[6] = second compound 0.1 µM, first compound 0.3 µM
[7] = second compound 0.316 µM, first compound 0.000949 µM
[8] = second compound 0.316 µM, first compound 0.003 µM
[9] = second compound 0.316 µM, first compound 0.00949 µM
[10] = second compound 0.316 µM, first compound 0.03 µM
[11] = second compound 0.316 µM, first compound 0.0949 µM
[12] = second compound 0.316 µM, first compound 0.3 µM
[13] = second compound 1 µM, first compound 0.000949 µM
[14] = second compound 1 µM, first compound 0.003 µM
[15] = second compound 1 µM, first compound 0.00949 µM
[16] = second compound 1 µM, first compound 0.03 µM
[17] = second compound 1 µM, first compound 0.0949 µM
[18] = second compound 1 µM, first compound 0.3 µM
[19] = second compound 3.16 µM, first compound 0.000949 µM
[20] = second compound 3.16 µM, first compound 0.003 µM
[21] = second compound 3.16 µM, first compound 0.00949 µM
[22] = second compound 3.16 µM, first compound 0.03 µM
[23] = second compound 3.16 µM, first compound 0.0949 µM
[24] = second compound 3.16 µM, first compound 0.3 µM
[25] = second compound 10 µM, first compound 0.000949 µM
[26] = second compound 10 µM, first compound 0.003 µM
[27] = second compound 10 µM, first compound 0.00949 µM
[28] = second compound 10 µM, first compound 0.03 µM
[29] = second compound 10 µM, first compound 0.0949 µM
[30] = second compound 10 µM, first compound 0.3 µM
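Also: spheroids exposed to agents for 7 days after 3 days growth.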

CCc1c2c(nc3ccc(O)cc13)-c1cc3c(c(=O)n1C2)COC(=O)[C@]3(O)CC + NC1CC1c1ccc(-c2cccc(O)c2)cc1
IC50 (second compound 0.1 µM): < 0.949 nM
IC50 (second compound 0.316 µM): < 0.949 nM
IC50 (second compound 1 µM): < 0.949 nM
IC50 (second compound 3.16 µM): < 0.949 nM
IC50 (second compound 10 µM): < 0.949 nM
viability, T/C [1]: 44.7%
viability, T/C [2]: 30.8%
viability, T/C [3]: 25.1%
viability, T/C [4]: 15.4%
viability, T/C [5]: 21.5%
viability, T/C [6]: 19.3%
viability, T/C [7]: 49%
viability, T/C [8]: 37.4%
viability, T/C [9]: 17.8%
viability, T/C [10]: 20%
viability, T/C [11]: 16.7%
viability, T/C [12]: 22.7%
viability, T/C [13]: 36.3%
viability, T/C [14]: 22.2%
viability, T/C [15]: 8.77%
viability, T/C [16]: 16.8%
viability, T/C [17]: 13.8%
viability, T/C [18]: 18.6%
viability, T/C [19]: 22.5%
viability, T/C [20]: 22.6%
viability, T/C [21]: 5.26%
viability, T/C [22]: 13.8%
viability, T/C [23]: 14.6%
viability, T/C [24]: 5.74%
viability, T/C [25]: 26.9%
viability, T/C [26]: 14.8%
viability, T/C [27]: 2.56%
viability, T/C [28]: 8.5%
viability, T/C [29]: 7.12%
viability, T/C [30]: 4.11%

Nc1ccn(C2OC(CO)C(O)C2(F)F)c(=O)n1 (stereo not given) + NC1CC1c1ccc(-c2cccc(O)c2)cc1
IC50 (second compound 0.1 µM): > 300 nM
IC50 (second compound 0.316 µM): > 300 nM
IC50 (second compound 1 µM): > 300 nM
IC50 (second compound 3.16 µM): > 300 nM
IC50 (second compound 10 µM): > 300 nM
viability, T/C [1]: 65.1%
viability, T/C [2]: 61.8%
viability, T/C [3]: 57.8%
viability, T/C [4]: 61.2%
viability, T/C [5]: 65%
viability, T/C [6]: 64.1%
viability, T/C [7]: 70.9%
viability, T/C [8]: 63.8%
viability, T/C [9]: 59.7%
viability, T/C [10]: 60.9%
viability, T/C [11]: 66.6%
viability, T/C [12]: 64.1%
viability, T/C [13]: 76.6%
viability, T/C [14]: 62.6%
viability, T/C [15]: 59.5%
viability, T/C [16]: 62.2%
viability, T/C [17]: 62%
viability, T/C [18]: 63.8%
viability, T/C [19]: 74.8%
viability, T/C [20]: 58.3%
viability, T/C [21]: 57.8%
viability, T/C [22]: 56.6%
viability, T/C [23]: 60.2%
viability, T/C [24]: 63.2%
viability, T/C [25]: 65.7%
viability, T/C [26]: 61.2%
viability, T/C [27]: 52.4%
viability, T/C [28]: 55.6%
viability, T/C [29]: 59.1%
viability, T/C [30]: 56%

CC(C)CC(NC(=O)CNC(=O)c1cc(Cl)ccc1Cl)B1OC(=O)CC(CC(=O)O)(C(=O)O)O1 (stereo not given) + NC1CCC(NC2CC2c2ccccc2)CC1
IC50 (second compound 0.1 µM): 3.66 nM
IC50 (second compound 0.316 µM): 3.22 nM
IC50 (second compound 1 µM): 3.66 nM
IC50 (second compound 3.16 µM): 3.84 nM
IC50 (second compound 10 µM): 3.71 nM
viability, T/C (second compound 0.1 µM, first compound 0.000316 µM): 87.4%
viability, T/C (second compound 0.1 µM, first compound 0.001 µM): 86.8%
viability, T/C (second compound 0.1 µM, first compound 0.00316 µM): 54.9%
viability, T/C (second compound 0.1 µM, first compound 0.01 µM): 13.2%
viability, T/C (second compound 0.1 µM, first compound 0.0316 µM): 3.51%
viability, T/C (second compound 0.1 µM, first compound 0.1 µM): 4.11%
viability, T/C (second compound 0.316 µM, first compound 0.000316 µM): 84.8%
viability, T/C (second compound 0.316 µM, first compound 0.001 µM): 83.8%
viability, T/C (second compound 0.316 µM, first compound 0.00316 µM): 49.8%
viability, T/C (second compound 0.316 µM, first compound 0.01 µM): 11.8%
viability, T/C (second compound 0.316 µM, first compound 0.0316 µM): 3.3%
viability, T/C (second compound 0.316 µM, first compound 0.1 µM): 1.04%
viability, T/C (second compound 1 µM, first compound 0.000316 µM): 79%
viability, T/C (second compound 1 µM, first compound 0.001 µM): 82.2%
viability, T/C (second compound 1 µM, first compound 0.00316 µM): 54.5%
viability, T/C (second compound 1 µM, first compound 0.01 µM): 13.6%
viability, T/C (second compound 1 µM, first compound 0.0316 µM): 3.7%
viability, T/C (second compound 1 µM, first compound 0.1 µM): 1%
viability, T/C (second compound 3.16 µM, first compound 0.000316 µM): 91.7%
viability, T/C (second compound 3.16 µM, first compound 0.001 µM): 90.8%
viability, T/C (second compound 3.16 µM, first compound 0.00316 µM): 57.1%
viability, T/C (second compound 3.16 µM, first compound 0.01 µM): 12.4%
viability, T/C (second compound 3.16 µM, first compound 0.0316 µM): 3.26%
viability, T/C (second compound 3.16 µM, first compound 0.1 µM): 0.97%
viability, T/C (second compound 10 µM, first compound 0.000316 µM): 86.1%
viability, T/C (second compound 10 µM, first compound 0.001 µM): 94.2%
viability, T/C (second compound 10 µM, first compound 0.00316 µM): 56.2%
viability, T/C (second compound 10 µM, first compound 0.01 µM): 8.46%
viability, T/C (second compound 10 µM, first compound 0.0316 µM): 1.96%
viability, T/C (second compound 10 µM, first compound 0.1 µM): 0.65%
